In publication PMC4669722, “Antitumour potential of BPT: a dual inhibitor of cdk4 and tubulin polymerization” (Cell Death & Disease, 2015):

Assays:
[1] = test system: NCI-H460 tumours; assay: NCI-H460 xenograft efficacy in SCID mice; type: in vivo; conditions: 100 mpk intraperitoneal, 9 days
Method: A group of 65 SCID (SCID strain-CBySmn.CB17-Prkdc^scid/J; The Jackson Laboratory; Stock no. 001803) female mice weighing 15–24 g and 6–8 weeks old were used. Human non-small-cell lung carcinoma, NCI-H460 (ATCC; cat. no. HTB-177) cells grown in RPMI-1640 medium supplemented with 10% FBS (Sigma-Aldrich). The cultured cells were injected subcutaneously into the dorsal side of SCID mice at a tune of 5.3 × 10^6 cells in 0.2 ml of suspension. When the tumour growth reached about 4–6 mm in diameter (about 6 days), the animals were randomly divided into eight groups, each containing 6 or 7 mice. The treatments were continued for 9 consecutive days intraperitoneally. Flavopiridol (2.5 mpk) was used as a positive control in this study. Tumour size was recorded at 2–5 day intervals. Tumour weight (mg) was estimated according to the formula for a prolate ellipsoid: (length (mm) × width (mm)^2) × 0.5) assuming specific gravity to be one and π to be 3. Tumour growth in compound treated animals is calculated as T/C (treated/control) × 100% and growth inhibition percent (% GI) was (100−% T/C).[48], [49], [50]

[2] = biological target: PDGFR; assay: Kinase profiling (Millipore), PDGFR; type: biochemical
Method: (§1) The in vitro kinase assays for testing against Cdk4-cyclin D1, Cdk2-cyclin A, Cdk1-cyclin B1 and Cdk9-cyclin T1 were performed in-house. The methodology and results have been reported previously.[20], [30], [31], [32], [45] The kinase profiling for 58 representative kinases was carrried out commercially at Millipore Bioscience Division, Livingston, UK.

[3] = biological target: Cdk4-cyclin D1 (Homo sapiens, UniProt P11802); assay: In vitro kinase assay, Cdk4-cyclin D1 (in-house); type: biochemical
Chain of Cdk4-cyclin D1 (P11802 whole entry): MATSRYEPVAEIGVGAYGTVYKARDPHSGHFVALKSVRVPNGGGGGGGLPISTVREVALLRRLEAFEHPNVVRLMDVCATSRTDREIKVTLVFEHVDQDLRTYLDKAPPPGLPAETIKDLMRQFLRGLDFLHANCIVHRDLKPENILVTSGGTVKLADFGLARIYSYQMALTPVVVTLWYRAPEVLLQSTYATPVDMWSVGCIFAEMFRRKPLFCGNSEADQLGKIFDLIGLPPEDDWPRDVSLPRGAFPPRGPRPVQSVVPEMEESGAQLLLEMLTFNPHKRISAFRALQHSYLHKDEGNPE
Chain of Cdk4-cyclin D1 (P24385 whole entry partner): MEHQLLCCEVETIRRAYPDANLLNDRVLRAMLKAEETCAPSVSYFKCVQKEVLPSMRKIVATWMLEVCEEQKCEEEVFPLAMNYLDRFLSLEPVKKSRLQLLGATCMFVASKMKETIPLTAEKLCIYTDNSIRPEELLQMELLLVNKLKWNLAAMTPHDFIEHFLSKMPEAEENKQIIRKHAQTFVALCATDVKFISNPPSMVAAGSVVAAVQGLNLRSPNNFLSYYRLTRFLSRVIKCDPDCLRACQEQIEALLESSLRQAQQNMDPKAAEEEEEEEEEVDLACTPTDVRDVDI
Method: as §1

[4] = test system: p53+ A549 and LS174T cells; assay: Western blot of cell cycle proteins in p53+ cells; type: cell-based, human; conditions: IC50 concentration, 24 h
Method: A549, LS174T and MiaPaCa cells were seeded in 25 cm^2 tissue culture flasks in the complete growth medium. […] Cells were harvested by trypsinization, washed in ice-cold PBS and then lysed in buffer (Sigma-Aldrich; cat. no. C-2978) containing protease inhibitor cocktail (Sigma-Aldrich; cat. no. P8340). The lysates were centrifuged at 14 000 r.p.m. (revolutions per minute) for 10 min at 4 °C and the total protein concentrations were estimated in the clear supernatants using the Bradford method. Equal amounts of protein (40 μg) were loaded and electrophoresed on 10% SDS-polyacrylamide gels and blotted on Immobilon-P Transfer Membrane (Millipore; cat. no.IPVH20200). The blots were probed with respective primary antibodies (at 4 °C, overnight) at the following dilutions: cdc2 (New England Biolabs, Hitchin, UK; cat. no. 9110) at 1 : 1000 to detect Cdk1; cyclin B1 (CRUK, London, UK; cat. no. V152) at 1 : 1500 dilution to detect cyclin B1; Pab 1801 (Santa Cruz Biotechnology, Heidelberg, Germany; cat. no. sc-98) at 1 : 500 dilution to detect p53; N-20 (Santa Cruz Biotechnology; cat. no. sc-469) at 1 : 500 dilution to detect p21; C-19 (Santa Cruz Biotechnology; cat. no. sc-528) at 1 : 250 dilution to detect p27; AC-40 (Sigma-Aldrich; cat. no. A4700) at 1 : 2000 dilution to detect actin. Appropriate secondary antibodies conjugated with horseradish peroxidase were used and the protein bands were visualized by chemiluminescence using the ECL Kit (Santa Cruz Biotechnology; cat. no. sc-2048).

[5] = test system: MiaPaCa (pancreatic; p53His273mut, pRb+); assay: Cell proliferation (MTT) assay, MiaPaCa; type: cell-based; conditions: Homo sapiens, MIA PaCa-2, 48 h, read-out: IC50 cell growth inhibition, MiaPaCa
Method: All 10 human cancer cell lines were maintained at 37 °C in 5% CO2 in RPMI-1640 medium, supplemented with 10% foetal calf serum and 100 μg/ml normocin. The 10 cancer cell lines used for screening were all obtained from ATCC (Manassas, VA, USA); they were the NSCLC (a form of cancer that is resistant to chemotherapy) lines: NCI-H460 (pRb^+, p53^+), A549 (pRb^+, p53^+), Calu-1 (pRb^+, p53-null), NCI-H1299 (pRb^+, p53-null), NCI-H358 (pRb-null, p53-null); the colon cancer line LS174T (pRb^+, p53^+); the prostate cancer line PC-3 (pRb^+, p53-null); the pancreatic cancer line MiaPaca (pRb^+, p53-mutant). The genotypes within brackets indicate the status of the tumour suppressor proteins pRb and p53. The mouse embryonic normal hepatic cell line (BNL CL2) and its SV40 large T-antigen-transformed counterpart cell line (BNL SV A.8) were also purchased from ATCC. The large T-antigen inactivates the tumour suppressor proteins p53 and pRb. The detailed procedure of cell proliferation (MTT) assay and IC50 determination was described previously.[32]

[6] = test system: NCI-H1299 cells; assay: Flow cytometric cell cycle analysis, NCI-H1299; type: cell-based, human; conditions: NCI-H1299, IC50 concentration, 24 h
Method: The untreated (control) and treated (with test compounds) cells were harvested by trypsinization, washed once with PBS and then fixed in 70% chilled (−20 °C) ethanol for minimum 1 h. After the fixation step, cells were centrifuged for 5 min at 3000 × g at room temperature, and the pellet was suspended in PBS containing 50 μg/ml propidium iodide (Sigma-Aldrich, Dorset, UK; cat. no. P-4170) and 0.5 mg/ml DNase-free ribonuclease (Sigma-Aldrich; cat. no. R-5503). The cells were stained for 1 h in the dark at 4 °C. Cell cycle analysis was performed on the Beckman Coulter (Epics Altra) fluorescence-activated cell sorter (Beckman Coulter UK Ltd, Buckinghamshire, UK). To gate all the events that represent single cells, and not cell doublets or cell clumps, the following analyses were performed on the samples. Cytograms of propidium iodide fluorescence peak signal versus integrated fluorescence or the linear signal were plotted. All data points on the straight line were isolated in a single gate and the gated data was further used for plotting a histogram that represents a complete cell cycle. The total number of events was not allowed to exceed 200 events per s. Data acquisition was stopped after a minimum of 10 000 events had been collected.

Question: What does the source list for `O=C(c1ccccc1-c1ccccc1)N1CCc2c([nH]c3ccccc23)C1` [BPT, 2-(biphenyl-2-carbonyl)-2,3,4,9-tetrahydro-1H-pyrido[3,4-b]indole]?
Answer: antitumour efficacy [1]: high efficacy; IC50 [2]: > 10 µM; selectivity for Cdk4-cyclin D1 with respect to Cdk2-cyclin A [3]: 83 fold; IC50 ([3]; three independent experiments, read-out: IC50 (mean±S.D.), Cdk4-cyclin D1): 10 ± 1.2 µM; induction of p53 [4]: more than 10 fold; levels of p21CIP1/WAF1 (p21) [4]: increase; levels of p27KIP1 (p27) [4]: elevated; Cdk1 and cyclin B1 protein levels ([4]; versus untreated control): downregulated; IC50 [5]: 0.8 µM; cells in G2/M [6]: 50%
